*1 amine or outer side, *2 acyl side, *3 side chain or, on linkers, in order; H or OH if unused. Where a SMILES comes first, the peptide text is derived from it. [ ]: non-standard residue; d: D form. azaPhe = O=C(N(Cc1ccccc1)N[*:1])[*:2]; azaPro = O=C(N1CCCN1[*:1])[*:2]
Experiments:
[1] = In vitro peptide stability in human plasma; type: in vitro ADME; details: after 24 h incubation at 37° C. in fresh human plasma; HPLC peak area vs sample incubated in PBS; read-out: % of intact peptide in human plasma
Description: (§1) Peptides were prepared as a 1 μg/μl solution in water. 20 μl of the peptide solution was diluted in 80 μl of fresh human plasma or 10% rat brain homogenate (prepared in PBS). The resulting solution was incubated at 37° C. for different times and the reaction was stopped by adding a complete cocktail of protease inhibitors. The bulk of plasma and brain proteins (but none of the peptide) were precipitated in cold methanol (mix/MeOH, 4/5, v/v) during one hour at −20° C. The precipitated proteins were pelleted by centrifugation (10000 g, 10 min, 4° C.). The supernatant, containing the peptide, was concentrated 5 times under vacuum and separated by reverse-phase HPLC. The area of the peak corresponding to the intact peptide was measured and compared with an equivalent sample incubated in PBS. The results are listed in Table 1 as percentage of intact peptide after 24 h incubation at 37° C. in human plasma and in rat brain homogenate. The values compare favourably with those obtained for the reference compound of Example 8.

[2] = In vitro peptide stability in rat brain homogenate; type: in vitro ADME; details: after 24 h incubation at 37° C. in 10% rat brain homogenate; HPLC peak area vs sample incubated in PBS; read-out: % of intact peptide in rat brain homogenate
Description: as §1

Row | Compound | remaining at 24 h, 0.2 μg/μl [1] | remaining at 24 h, 0.2 μg/μl [2]
1 | CC(=O)N[C@@H](CC(C)C)C(=O)N1CCC[C@H]1C(=O)NN(Cc1ccccc1)C(=O)N[C@@H](Cc1ccccc1)C(=O)N[C@@H](CC(=O)O)C(N)=O [Example 5, Ac-L-P-F^a-F-D-NH2] (Ac-LP[azaPhe]FD-NH2) | 93% | 71%
2 | CC(=O)N[C@@H](CC(C)C)C(=O)N1CCCN1C(=O)N[C@@H](Cc1ccccc1)C(=O)N[C@@H](Cc1ccccc1)C(=O)N[C@@H](CC(=O)O)C(N)=O [Example 6, Ac-L-P^a-F-F-D-NH2] (Ac-L[azaPro]FFD-NH2) | 93% | 80%
3 | Ac-LPFFD-NH2 [Example 8, reference compound] | 74% | 2%
